Measured values from publication PMC3335845, “In-Vivo Biodistribution and Safety of ^99mTc-LLP2A-HYNIC in Canine Non-Hodgkin Lymphoma” (PLoS ONE, 2012).

Experiments:
[1] = Whole body activity by handheld monitor at 1 m from the dog; format: in vivo, dogs
From the text: All dogs were held overnight in a protected area with institutionally approved radiation safety protocols. Dogs were released from the facility after whole body radiation levels were less than 0.5 mR/hr at the skin surface and less than 0.05 mR/hr at 1 m.

[2] = Safety monitoring in dogs (vital signs, blood pressure, complete blood counts, serum biochemistry); format: in vivo; conditions: normal dogs and those with NHL
Procedure: All 3 dogs were mixed breed dogs and after physical examination were clinically normal. […] Images of the whole body in orthogonal planes were acquired at 2 hours, 4 hours, and 6 hours after injection. Complete blood counts and serum biochemistry were performed before and after imaging.

[3] = Organ uptake by gamma camera scintigraphy (organ:muscle ratio and percent injected dose); format: in vivo, dogs
Procedure: All dogs were imaged with a Gamma camera (Technicare Omega 500, Solon, Ohio, or IS2, Ottawa, Ontario). Images were obtained of the whole body in overlapping segments, in right lateral, left lateral, and sternal recumbency. Images were obtained to 200,000 counts, with a 256×256 bit matrix and 16-bit depth. A camera standard of 200 uCi in 10 mL of water was included in each image to ensure stable measurements over the scan period. Camera sensitivity was determined by placing the camera standard 30 cm from the detector and scanning for 1 minute. This calibration factor was used to convert individual organ emission counts to mCi.
Chemotherapy consisted of prednisone, vincristine, cyclophosphamide, and L-asparaginase. Two dogs had whole body computed tomography (CT) performed.
ROIs were drawn on the 2 hour images and duplicated for the opposite lateral projection and subsequent time points, and adjusted for altered patient position. […]
Organs that were clearly delineated on conjugate projections (liver, GI, bone marrow, lung) were measured using the geometric mean method, and smaller or peripherally located organs (kidney, mandibular lymph nodes, salivary gland) were measured using the effective point source method. Depth for depth correction was measured on orthogonal images. Lung activity was measured using an ROI in a posterior region and normalized to the total pixels of the lung. […] […] Camera sensitivity was measured using the camera standard. Percent injected dose and organ:muscle ratio were calculated for each imaging study at each time point. Imaging results are presented in graphical format as percent injected dose for each organ evaluated, as well as organ:muscle ratios.

[4] = system: activated α4β1 integrin; design: method as in PMID 9479864; conditions: cited from earlier work
[5] = system: normal lymphocytes; design: method as in PMID 16767086, PMID 22177114; conditions: increases with activation; cited from earlier work
[6] = design: method as in PMID 16767086; conditions: human plasma; cited from earlier work
[7] = system: canine lymphoma; design: method as in PMID 16767086, PMID 19289419, PMID 22177114; conditions: in vitro, canine cell lines and tissue samples; less than in human cell lines and xenografts; cited from earlier work

| Molecule | mean whole body activity ([1]; 5 minutes post-injection) [mR/h] | whole body activity, range ([1]; 5 minutes post-injection) | mean whole body activity ([1]; 360 min) [mR/h] | whole body activity ([1]; 24 hours) [mR/h] | overall safety [2] | route of elimination ([3]; dogs) | organ:muscle ratio ([3]; kidney affected with lymphoma (dog L1), highest ratio of tumor tissues) | organ:muscle ratio ([3]; unaffected kidney in the same dog (L1)) | affinity to activated α4β1 on lymphoma cells [4] | affinity to normal lymphocytes [5] | resistance to proteases [6] | affinity to canine lymphoma [7] |
| --- | --- | --- | --- | --- | --- | --- | --- | --- | --- | --- | --- | --- |
| Cc1ccccc1NC(=O)Nc1ccc(CC(=O)N[C@@H](CCCCNC(=O)/C=C/c2cccnc2)C(=O)N[C@@H](CCCC(=O)O)C(=O)NC2(C(=O)NCCOCCOCCNC(=O)CCC(=O)NCCOCCOCCNC(=O)CCC(=O)N[C@@H](CCCCNC(=O)c3ccc(NN)nc3)C(N)=O)CCCCC2)cc1 [^99mTc-LLP2A-HYNIC, metal not drawn] | 0.5 | 0.2–0.8 mR/h | 0.13 | 0.04 | safe | mainly eliminated through the kidneys | 7.00 | 5.27 |  |  |  |  |
| N-[[4-[[[(2-ethylphenyl)amino]carbonyl]amino]phenyl]acetyl]-N ^ε-6-[(2E)-1-oxo-3-(3-pyridinyl-2-propenyl)]-L-lysyl-L-2-aminohexanedioyl-(1-amino-1-cyclohexane)carboxamide [LLP2A] |  |  |  |  |  |  |  |  | high affinity | mild affinity | resistant to proteases in human plasma | good affinity |
